Measured values taken from patent US12643871B2, “Aryl formamide compound containing chiral sulfur oxide or salt thereof, preparation method, herbicidal composition and use thereof” (Qingdao Kingagroot Chemical Compound Co., Ltd., priority 2019, dated 2026).

Legend:
Assay in all cases: Weeding effect in post-emergence stage
Type in all cases: in vivo
Conditions in all cases: 250 g/ha; 2 leaf stage; 15 days after application; fresh weight control rate
Setaria viridis = test system: Setaria viridis
Procedure, shortened: (§1)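 Reported levels reflect fresh weight growth control rate banded 0 (<5%) through 5 (>85%), averaged over three repetitions. Treatment: foliar spray of 2-leaf-stage greenhouse plants at 15 to 500 g/ha, with 1.5 liter/ha methyl oleate synergist; assessment 15 days after application.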

Abutilon theophrasti = test system: Abutilon theophrasti
Procedure, shortened: as §1

Amaranthus retroflexus = test system: Amaranthus retroflexus
Procedure, shortened: as §1

Digitaria sanguinalis = test system: Digitaria sanguinalis
Procedure, shortened: as §1

Echinochloa crusgali = test system: Echinochloa crusgali
Procedure, shortened: as §1

Row | Compound | weeding effect in post-emergence stage, activity level (growth control rate), Setaria viridis (Setaria viridis) | weeding effect in post-emergence stage, activity level (growth control rate), Abutilon theophrasti (Abutilon theophrasti) | weeding effect in post-emergence stage, activity level (growth control rate), Amaranthus retroflexus (Amaranthus retroflexus) | weeding effect in post-emergence stage, activity level (growth control rate), Digitaria sanguinalis (Digitaria sanguinalis) | weeding effect in post-emergence stage, activity level (growth control rate), Echinochloa crusgali (Echinochloa crusgali)
1 | Cc1nnc(NC(=O)c2ccc(C(F)(F)F)c([S@+]([O-])CCC(C)C)c2F)o1 [Compound 9] | 5 (Level 5: growth control rate is above 85%) | 5 (Level 5: growth control rate is above 85%) | 5 (Level 5: growth control rate is above 85%) | 5 (Level 5: growth control rate is above 85%) | 5 (Level 5: growth control rate is above 85%)
2 | Cc1nnc(NC(=O)c2ccc(C(F)(F)F)c([S@+]([O-])CCCO)c2F)o1 [Compound 55] | 5 (Level 5: growth control rate is above 85%) | 5 (Level 5: growth control rate is above 85%) | 5 (Level 5: growth control rate is above 85%) | 5 (Level 5: growth control rate is above 85%) | 5 (Level 5: growth control rate is above 85%)
3 | COc1c(C(=O)Nc2nnc(C)o2)ccc(C(F)(F)F)c1[S@+]([O-])CCC(F)(F)F [Compound 325] | 5 (Level 5: growth control rate is above 85%) | 5 (Level 5: growth control rate is above 85%) | 5 (Level 5: growth control rate is above 85%) | 5 (Level 5: growth control rate is above 85%) | 5 (Level 5: growth control rate is above 85%)
4 | CC[S@@+]([O-])c1c(C(F)(F)F)ccc(C(=O)Nc2nnco2)c1OC [Compound 423] | 5 (Level 5: growth control rate is above 85%) | 5 (Level 5: growth control rate is above 85%) | 5 (Level 5: growth control rate is above 85%) | 5 (Level 5: growth control rate is above 85%) | 5 (Level 5: growth control rate is above 85%)
5 | CCC(C)[S@@+]([O-])c1c(C(F)(F)F)ccc(C(=O)Nc2nnco2)c1F (stereo partly shown) [Compound 576] | 5 (Level 5: growth control rate is above 85%) | 5 (Level 5: growth control rate is above 85%) | 5 (Level 5: growth control rate is above 85%) | 5 (Level 5: growth control rate is above 85%) | 5 (Level 5: growth control rate is above 85%)
6 | CCOCC[S@@+]([O-])c1c(C(F)(F)F)ccc(C(=O)Nc2nnc(C)o2)c1F [Compound 73] | 5 (Level 5: growth control rate is above 85%) | 5 (Level 5: growth control rate is above 85%) | 5 (Level 5: growth control rate is above 85%) | 5 (Level 5: growth control rate is above 85%) | 5 (Level 5: growth control rate is above 85%)
7 | COc1c(C(=O)Nc2nnc(C)o2)ccc(C(F)(F)F)c1[S@+]([O-])CC(C)O (stereo partly shown) [Compound 336] | 5 (Level 5: growth control rate is above 85%) | 5 (Level 5: growth control rate is above 85%) | 5 (Level 5: growth control rate is above 85%) | 5 (Level 5: growth control rate is above 85%) | 5 (Level 5: growth control rate is above 85%)
8 | COC[S@+]([O-])c1c(C(F)(F)F)ccc(C(=O)Nc2nnc(C)o2)c1OC [Compound 342] | 5 (Level 5: growth control rate is above 85%) | 5 (Level 5: growth control rate is above 85%) | 5 (Level 5: growth control rate is above 85%) | 5 (Level 5: growth control rate is above 85%) | 5 (Level 5: growth control rate is above 85%)
9 | Cc1nnc(NC(=O)c2ccc(C(F)(F)F)c([S@@+]([O-])C(=O)CC(F)(F)F)c2F)o1 [Compound 169] | 5 (Level 5: growth control rate is above 85%) | 5 (Level 5: growth control rate is above 85%) | 5 (Level 5: growth control rate is above 85%) | 5 (Level 5: growth control rate is above 85%) | 5 (Level 5: growth control rate is above 85%)
10 | CCCn1nnnc1NC(=O)c1ccc(C(F)(F)F)c([S@+]([O-])CC)c1OC [Compound 447] | 5 (Level 5: growth control rate is above 85%) | 5 (Level 5: growth control rate is above 85%) | 5 (Level 5: growth control rate is above 85%) | 5 (Level 5: growth control rate is above 85%) | 5 (Level 5: growth control rate is above 85%)
11 | CCC(C)C[S@@+]([O-])c1c(C(F)(F)F)ccc(C(=O)Nc2nnc(C)o2)c1F (stereo partly shown) [Compound 10] | 5 (Level 5: growth control rate is above 85%) | 5 (Level 5: growth control rate is above 85%) | 5 (Level 5: growth control rate is above 85%) | 5 (Level 5: growth control rate is above 85%) | 5 (Level 5: growth control rate is above 85%)
